The target in one data set is T1, α1β3γ2 GABAA receptors (Rattus norvegicus, UniProt P18508+P62813).
T1 construct: expressed in transfected cells; host or cells: Xenopus laevis oocytes injected with cRNA
The data set is described as follows: Two-electrode voltage clamp in Xenopus oocytes, α1β3γ2. The class given is cell-based. To be noted: FIG. 1, Xenopus oocytes. The method, then: (§1) 1. Effects of SH-053-S—CH3 8 on GABA(A) receptors were tested by two-electrode voltage clamp experiments in cRNA injected Xenopus oocytes that functionally expressed several subtype combinations of GABAA receptors. […] This oocyte profile is indicative of an anxiolytic agent devoid of sedative, ataxic and anterograde amnestic side effects.
(§2) The methods were based on those published previously. See Li, X., et al., (2003) J. Med. Chem. 46: 5567-5570.
(§3) Cloning of GABAA receptor subunits α1, β3 and γ2 into pCDM8 expression vectors (Invitrogen, CA) has been described elsewhere ([…]). GABAA receptor subunit α4 was cloned in an analogous way. cDNAs for subunits α2, α3 and α5 were gifts from P. Malherbe and were subcloned into pCI-vector (Li, et al., 2003). cDNA for subunit α6 was a gift from P. Seeburg and was subcloned into the vector pGEM-3Z (Promega). After linearizing the cDNA vectors with appropriate restriction endonucleases, capped transcripts were produced using the mMessage mMachine T7 transcription kit (Ambion, Tex.). The capped transcripts were polyadenylated using yeast poly(A) polymerase (USB, OH) and were diluted and stored in diethylpyrocarbonate-treated water at −70° C. (Li, et al., 2003). […]
In general terms: In two-electrode clamp one electrode senses voltage and the other passes current.

For data set [1], the system named is Male BALB/c mice. As to the kind of experiment: Light/dark test in mice. The class given is in vivo, mouse. The settings on record: ip, FIG. 2 A, *p<0.05 vs. vehicle. The method, then:
(§4) Male BALB/c mice approximately 8 to 10 weeks old (18-25 grams) served as subjects in the locomotor activity and light/dark assays. Animals were housed in groups of four on a 14 hour light/10 hour dark cycle and were given free access to food and water. All experiments were conducted during the animals' light cycle (0800-1700).
(§5) Behavioral testing was conducted in an illuminated open field chamber (11.0″×11.0″; Med Associates MED-OFA-510) equipped with infrared beams and sensors which was placed in a sound attenuating cubicle. Horizontal locomotor activity was measured by recording the total number of beams crossed in a 60 minute period. Anxiolytic-like behavior was assessed using the same chambers with the addition of a Plexiglas insert that is opaque to visible light creating separate darkened and illuminated sides (5.5″×11.0″) of the chamber. An opening in the middle of the dark insert allowed the animals to move freely between each side of the chamber. Animals were place in the center of the illuminated side of the chamber and allowed to freely explore for 10 minutes. The amount of time (sec) that the animals spent in each side of the chamber was recorded. Data were analyzed using one-way analysis of variance and Bonferroni t-tests.
Vehicle and doses of SH-053-S—CH3 8 (10.0-100.0 mg/kg) and SH-053-R-CH3 29 (56.0 mg/kg) were tested in the light/dark and locomotor activity assays. […]

Another data set has as its target T2, α3β3γ2 GABAA receptors (Rattus norvegicus, UniProt P18508+P20236).
T2 construct: expressed in transfected cells; host or cells: Xenopus laevis oocytes injected with cRNA
The data set is described as follows: Two-electrode voltage clamp in Xenopus oocytes, α3β3γ2. The class given is cell-based. The settings on record: FIG. 1, Xenopus oocytes. The method, then:
as §1, §2, §3

For data set [2], the system named is Male BALB/c mice. As to the kind of experiment: Locomotor activity in mice. Type of data set: in vivo, mouse. The settings on record: ip. The method, then:
as §4, §5
Vehicle and doses of SH-053-S—CH3 8 (10.0-100.0 mg/kg) and SH-053-R-CH3 29 (56.0 mg/kg) were tested in the light/dark and locomotor activity assays. All drugs were administered intraperitoneally (ip) 30 minutes before each test in volumes of approximately 1 ml/kg. Drugs were dissolved in varying amounts of 95% ethanol (5-10%), propylene glycol and sterile water and diluted to the desired concentration with a solution of 50% propylene glycol and 50% sterile water.

A further data set has as its target T3, α2β3γ2 GABAA receptors (Rattus norvegicus, UniProt P18508+P23576).
T3 construct: expressed in transfected cells; host or cells: Xenopus laevis oocytes injected with cRNA
As to the kind of experiment: Two-electrode voltage clamp in Xenopus oocytes, α2β3γ2. Type of data set: cell-based. To be noted: FIG. 1, Xenopus oocytes. As for the experimental part:
as §1, §2, §3

Experimental findings from patent US7618958B2, “Stereospecific anxiolytic and anticonvulsant agents with reduced muscle-relaxant, sedative-hypnotic and ataxic effects” (WISYS Technology Foundation, Inc., priority 2004, dated 2009) are described below.

One may read the melting point as the temperature of the solid-liquid transition.

T2 sequence (P20236 29-493): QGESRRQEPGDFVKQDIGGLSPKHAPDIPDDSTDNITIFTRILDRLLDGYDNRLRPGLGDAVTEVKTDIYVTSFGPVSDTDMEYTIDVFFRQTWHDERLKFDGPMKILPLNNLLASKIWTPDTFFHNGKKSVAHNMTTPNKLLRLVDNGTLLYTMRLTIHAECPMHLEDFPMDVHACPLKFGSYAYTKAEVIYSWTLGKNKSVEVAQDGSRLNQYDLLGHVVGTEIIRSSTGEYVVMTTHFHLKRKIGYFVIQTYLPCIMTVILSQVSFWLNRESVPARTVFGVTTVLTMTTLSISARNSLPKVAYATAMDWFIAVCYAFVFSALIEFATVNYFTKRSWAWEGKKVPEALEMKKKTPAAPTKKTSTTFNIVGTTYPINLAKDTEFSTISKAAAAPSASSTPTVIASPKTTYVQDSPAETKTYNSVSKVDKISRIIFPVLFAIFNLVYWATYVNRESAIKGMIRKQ
T2 sequence (P63079 26-473 partner): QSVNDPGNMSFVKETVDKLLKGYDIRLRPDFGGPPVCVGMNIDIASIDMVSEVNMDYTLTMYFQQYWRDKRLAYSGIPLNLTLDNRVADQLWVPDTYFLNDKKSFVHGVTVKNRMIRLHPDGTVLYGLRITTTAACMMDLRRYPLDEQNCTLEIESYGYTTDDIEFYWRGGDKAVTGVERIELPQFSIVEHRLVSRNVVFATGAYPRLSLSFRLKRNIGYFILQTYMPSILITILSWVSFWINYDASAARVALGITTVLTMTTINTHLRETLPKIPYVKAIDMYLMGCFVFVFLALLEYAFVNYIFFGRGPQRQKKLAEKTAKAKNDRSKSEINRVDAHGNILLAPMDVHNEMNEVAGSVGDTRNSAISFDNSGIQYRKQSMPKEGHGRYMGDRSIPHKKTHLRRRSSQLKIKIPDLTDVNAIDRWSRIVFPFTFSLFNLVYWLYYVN
T2 sequence (P18508 39-466): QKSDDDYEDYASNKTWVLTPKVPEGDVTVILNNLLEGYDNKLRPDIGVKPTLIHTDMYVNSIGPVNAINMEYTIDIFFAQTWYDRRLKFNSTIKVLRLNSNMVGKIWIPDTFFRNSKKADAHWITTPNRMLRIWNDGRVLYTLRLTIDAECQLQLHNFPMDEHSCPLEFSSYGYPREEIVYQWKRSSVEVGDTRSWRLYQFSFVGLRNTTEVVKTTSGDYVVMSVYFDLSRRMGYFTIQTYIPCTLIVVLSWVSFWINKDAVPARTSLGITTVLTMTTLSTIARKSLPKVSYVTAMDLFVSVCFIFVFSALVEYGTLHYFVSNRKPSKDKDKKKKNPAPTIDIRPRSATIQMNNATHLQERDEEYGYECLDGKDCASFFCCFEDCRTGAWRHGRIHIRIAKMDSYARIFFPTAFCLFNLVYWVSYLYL
T3 sequence (P23576 29-451): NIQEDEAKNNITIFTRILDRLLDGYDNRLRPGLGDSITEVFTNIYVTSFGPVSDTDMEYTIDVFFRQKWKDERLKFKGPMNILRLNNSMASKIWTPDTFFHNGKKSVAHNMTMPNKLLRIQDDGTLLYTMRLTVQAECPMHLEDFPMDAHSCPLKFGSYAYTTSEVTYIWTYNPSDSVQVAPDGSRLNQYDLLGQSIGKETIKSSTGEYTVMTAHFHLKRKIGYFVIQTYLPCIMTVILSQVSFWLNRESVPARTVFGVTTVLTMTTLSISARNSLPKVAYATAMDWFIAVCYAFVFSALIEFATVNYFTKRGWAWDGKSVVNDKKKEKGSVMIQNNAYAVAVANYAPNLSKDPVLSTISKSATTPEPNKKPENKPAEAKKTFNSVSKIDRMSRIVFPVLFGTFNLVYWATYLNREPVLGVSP
T3 sequence (P63079 26-473 partner): as the sequence (P63079 26-473 partner) above
T3 sequence (P18508 39-466): as the sequence (P18508 39-466) above
T1 sequence (P62813 28-455): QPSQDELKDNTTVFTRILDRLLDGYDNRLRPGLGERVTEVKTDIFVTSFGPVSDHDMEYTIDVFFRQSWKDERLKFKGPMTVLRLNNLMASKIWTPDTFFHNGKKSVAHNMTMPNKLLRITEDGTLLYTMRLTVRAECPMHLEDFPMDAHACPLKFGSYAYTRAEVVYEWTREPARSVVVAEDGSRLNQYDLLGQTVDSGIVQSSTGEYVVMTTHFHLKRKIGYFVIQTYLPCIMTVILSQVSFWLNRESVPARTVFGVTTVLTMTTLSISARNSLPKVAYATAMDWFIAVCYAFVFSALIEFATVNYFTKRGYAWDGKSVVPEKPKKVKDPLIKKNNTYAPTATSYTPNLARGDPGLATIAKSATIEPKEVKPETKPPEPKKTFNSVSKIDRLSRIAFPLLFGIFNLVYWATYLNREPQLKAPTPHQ
T1 sequence (P63079 26-473 partner): as the sequence (P63079 26-473 partner) above
T1 sequence (P18508 39-466): as the sequence (P18508 39-466) above

For the compound `C#Cc1ccc2c(c1)C(c1ccccc1)=NC(C)c1c(C(=O)OCC)ncn1-2` (centres unmarked) [SH-053-S—CH3, 8-Ethynyl-4-methyl-6-phenyl-4H-2,5,10b-triaza-benzo[e]azulene-3-carboxylic acid ethyl ester], the melting point was 197 to 199 °C. In addition, the “efficacy at α1β3γ2 subtypes” value at α1β3γ2 GABAA receptors is reported as “almost no efficacy”. Besides, the “time spent in the lighted chamber in the light/dark test” value with Male BALB/c mice [1] is recorded as “increased time spent in the lighted chamber”. For the same compound, the “efficacy at α3β3γ2 subtypes” value at α3β3γ2 GABAA receptors is recorded as “agonist”. The locomotor activity result in the data set on Male BALB/c mice [2] (56 mg/kg) was “did not suppress locomotor activity”. Further, the locomotor activity entry with Male BALB/c mice [2] (100 mg/kg) is “did not suppress locomotor activity in any significant fashion”. Besides, the locomotor activity entry in the data set on Male BALB/c mice [2] (FIG. 2 B) was “No effects on locomotor activity were observed”. In addition, the “efficacy at α2β3γ2 subtypes” value at α2β3γ2 GABAA receptors is “agonist”.
